From US7294687B2, “Parenteral formulations of a peptide for the treatment of systemic lupus erythematosus” (TEVA Pharmaceutical Industries, Ltd., priority 2003, dated 2007)
Read-outs that look alike come from different tables or passages of the source.

How the values were obtained:
SLE subjects [1] = assay: Phase Ib multiple dose clinical study, tolerability and safety; type: in vivo, human; details: multiple subcutaneous doses of 0.5, 1 or 2.5 mg in 120 mg Captisol®; 12 sc injections
Experimental: This study is being performed in order to evaluate the safety and tolerability of repeated Compound 1 sc administration to SLE subjects. […] The investigational product is administered every other day (excluding weekends) for a total of 12 sc injections, i.e. 3 doses a week for 4 weeks. Subjects are monitored on planned visits scheduled at 2, 4, 8 and 12 weeks after start of dosing. Safety and tolerability are evaluated using tests similar to those described in the Phase Ia Clinical Study above.

[2] = test system: peripheral blood lymphocytes (PBL) of SLE patients; details: cited from earlier work
[3] = test system: peripheral blood lymphocytes (PBL) of SLE subjects; details: Compound 1 in captisol®, throughout the study period
SLE subjects [4] = assay: Phase Ia single dose clinical study, tolerability and safety; type: in vivo, human
Experimental: The following safety parameters were assessed at Screening, during the hospitalization and at follow-up visits including Termination visit: vital signs (systolic blood pressure, diastolic blood pressure, pulse, oxygen saturation, temperature and weight), 12-lead ECG, change in physical examination and clinical routine laboratory safety tests. Adverse events were recorded at the Dosing Day and at each visit thereafter.

[5] = test system: Balb/c mice and SLE-prone (NZBxNZW)F1 mice; details: cited from earlier work
[6] = test system: IFN-γ secretion by LN cells; assay: IFN-γ secretion by cultured LN cells of immunized and treated mice, ELISA; type: in vivo, BALB/c mice
Experimental: A group of 20 mice were immunized with 50 μg/mouse of Compound 1 RS. The immunized mice were allocated to five treatment groups as follows: placebo, 25, 50, 100 and 200 μg/mouse of Compound 1 DP (subcutaneous administration). Ten days post immunization and treatment, LN was extracted and single cell suspension was prepared. The in-vitro secretion of IFN-γ and TGF-β by the cultured cells in response to activation with several concentrations of Compound 1 RS was then measured. [table] [table] […] Mice were sacrificed by cervical dislocation. LN were extracted from the hind legs and were transferred to a sterile petri dish containing about 5 mL RPMI. The cells were extracted by gentle squeezing of the tissue against a 200 micrometer mesh stainless steel net. The cells were collected and centrifuged at 300 G for 10 minutes at RT. Single cell suspensions were prepared from pooled LN of each experimental group. […] Secretion of IFN-γ and TGF-β, as indication of cellular response, were determined by ELISA of culture media (48 hrs for IFN-γ and 72 hrs for TGF-β). [table]

[7] = test system: SLE-prone (NZBxNZW)F1 female mouse; assay: Intensity of immune complex deposits (ICD) in kidneys; type: in vivo, (NZBxNZW)F1 mice
Experimental: (§1) The same batch of drug substance was used in this study and in the first Phase I clinical trial with Compound 1. The mice were followed for anti-dsDNA antibodies and for proteinuria. When the mice were sacrificed, the intensity of ICD was determined in kidneys.

[8] = test system: SLE-prone (NZBxNZW)F1 female mouse; assay: Anti-dsDNA antibodies in SLE-prone mice; type: in vivo, (NZBxNZW)F1 mice; details: 25 or 50 μg/mouse in Captisol®; after 10 treatment injections; vs Captisol® alone
Experimental: as §1

[9] = Stability of Compound 1 versus pH, initial tests; type: physicochemical; details: basic pH range
Experimental: Thus, several buffers and pH adjustment agents were tested, including acetate buffer, citrate buffer and sodium carbonate. None of the initially tested buffers achieved the desired peptide solubility level. […] Nevertheless, at the initial stage, formulations with acetate buffer and citrate buffer (with Mannitol as a tonicity agent) were selected for initial toxicology studies. These formulations were tested for biological activity and proven active.

[10] = Solubility of Compound 1 peptide, formulation development; type: physicochemical
Excerpt: In order to develop a formulation for sub-cutaneous injection, it is also desirable that the pH be in the range of 4 to 9 and that the solution be iso-osmotic.
The pH was adjusted if needed.

[11] = single s.c. dose 0.5, 1 or 2.5 mg in Captisol®
[12] = single s.c. dose 0.5, 1 or 2.5 mg in Captisol®, vs placebo

Substance: H-GYYWSWIRQPPGKGEEWIG-OH [Compound 1]
- safety and tolerability, Phase Ib (SLE subjects [1]): safe and well tolerated
- proliferative response of PBL of SLE patients to the human anti-DNA 16/6Id mAB [2]: inhibit the proliferative response
- immunological response to TTX recall antigen [3]: did not change the immunological response to TTX recall antigen
- QTc change from baseline (SLE subjects [4]; [11]): ≤ 60 ms
- serious adverse event (SAE) or AE classified as severe (SLE subjects [4]; [11]): No serious adverse event (SAE) or AE classified as severe occurred
- vital signs parameters (systolic and diastolic blood pressure, pulse, oxygen saturation) (SLE subjects [4]; [11]): No clinically significant effect
- categorical ECG measurements and digitized ECG parameters (SLE subjects [4]; [12]): No differences of clinical significance
- incidence of AEs (SLE subjects [4]; [12]): no prominent difference
- safety and tolerability, Phase Ia (SLE subjects [4]; single subcutaneous dose of 0.5, 1 or 2.5 mg in 120 mg Captisol®): safe and well tolerated
- SLE related findings: immune complex deposits (ICD) in the kidney, proteinuria and leukopenia ([5]; Balb/c and (NZBxNZW)F1 mice): significantly reduced
- disease manifestations of mice afflicted with spontaneous or experimental SLE ([5]; mouse, in vivo): ameliorate disease manifestations
- Final cytokine (IFN-γ secretion) ([6]; Compound 1 DP 25 μg/M s.c., 5 million cells/well, activation Compound 1 RS 3.125 μg/ml): BQL
- Final cytokine (IFN-γ secretion) ([6]; Compound 1 DP 25 μg/M s.c., 5 million cells/well, activation Compound 1 RS 6.25 μg/ml): BQL
- Final cytokine (IFN-γ secretion) ([6]; Compound 1 DP 25 μg/M s.c., 5 million cells/well, activation Compound 1 RS 12.5 μg/ml): 41.9 pg/mL
- Final cytokine (IFN-γ secretion) ([6]; Compound 1 DP 25 μg/M s.c., 5 million cells/well, activation Compound 1 RS 50 μg/ml): 104.2 pg/mL
- Final cytokine (IFN-γ secretion) ([6]; Compound 1 DP 25 μg/M s.c., 5 million cells/well, activation Compound 1 RS 100 μg/ml): 185.2 pg/mL
- Final cytokine (IFN-γ secretion) ([6]; Compound 1 DP 25 μg/M s.c., 5 million cells/well, activation Compound 1 RS 25 μ/ml): 70.0 pg/mL
- Final cytokine (IFN-γ secretion) ([6]; Compound 1 DP 25 μg/M s.c., 5 million cells/well, activation Con A): 2995.3 pg/mL
- Final cytokine (IFN-γ secretion) ([6]; Compound 1 DP 50 μg/M s.c., 2.5 million cells/well, activation Compound 1 RS 3.125 μg/ml): 54.1 pg/mL
- Final cytokine (IFN-γ secretion) ([6]; Compound 1 DP 50 μg/M s.c., 2.5 million cells/well, activation Compound 1 RS 6.25 μg/ml): 81.8 pg/mL
- Final cytokine (IFN-γ secretion) ([6]; Compound 1 DP 50 μg/M s.c., 2.5 million cells/well, activation Compound 1 RS 12.5 μg/ml): 123.1 pg/mL
- Final cytokine (IFN-γ secretion) ([6]; Compound 1 DP 50 μg/M s.c., 2.5 million cells/well, activation Compound 1 RS 50 μg/ml): 292.5 pg/mL
- Final cytokine (IFN-γ secretion) ([6]; Compound 1 DP 50 μg/M s.c., 2.5 million cells/well, activation Compound 1 RS 100 μg/ml): 531.8 pg/mL
- Final cytokine (IFN-γ secretion) ([6]; Compound 1 DP 50 μg/M s.c., 2.5 million cells/well, activation Compound 1 RS 25 μ/ml): 215.1 pg/mL
- Final cytokine (IFN-γ secretion) ([6]; Compound 1 DP 50 μg/M s.c., 2.5 million cells/well, activation Con A): 356.2 pg/mL
- Final cytokine (IFN-γ secretion) ([6]; Compound 1 DP 50 μg/M s.c., 5 million cells/well, activation Compound 1 RS 3.125 μg/ml): 76.2 pg/mL
- Final cytokine (IFN-γ secretion) ([6]; Compound 1 DP 50 μg/M s.c., 5 million cells/well, activation Compound 1 RS 6.25 μg/ml): 109.2 pg/mL
- Final cytokine (IFN-γ secretion) ([6]; Compound 1 DP 50 μg/M s.c., 5 million cells/well, activation Compound 1 RS 12.5 μg/ml): 179.5 pg/mL
- Final cytokine (IFN-γ secretion) ([6]; Compound 1 DP 50 μg/M s.c., 5 million cells/well, activation Compound 1 RS 50 μg/ml): 373.4 pg/mL
- Final cytokine (IFN-γ secretion) ([6]; Compound 1 DP 50 μg/M s.c., 5 million cells/well, activation Compound 1 RS 100 μg/ml): 547.0 pg/mL
- Final cytokine (IFN-γ secretion) ([6]; Compound 1 DP 50 μg/M s.c., 5 million cells/well, activation Compound 1 RS 25 μ/ml): 277.9 pg/mL
- Final cytokine (IFN-γ secretion) ([6]; Compound 1 DP 50 μg/M s.c., 5 million cells/well, activation Con A): 4837.0 pg/mL
- Final cytokine (IFN-γ secretion) ([6]; Compound 1 DP 100 μg/M s.c., 2.5 million cells/well, activation Compound 1 RS 3.125 μg/ml): 64.5 pg/mL
- Final cytokine (IFN-γ secretion) ([6]; Compound 1 DP 100 μg/M s.c., 2.5 million cells/well, activation Compound 1 RS 6.25 μg/ml): 116.1 pg/mL
- Final cytokine (IFN-γ secretion) ([6]; Compound 1 DP 100 μg/M s.c., 2.5 million cells/well, activation Compound 1 RS 12.5 μg/ml): 180.9 pg/mL
- Final cytokine (IFN-γ secretion) ([6]; Compound 1 DP 100 μg/M s.c., 2.5 million cells/well, activation Compound 1 RS 50 μg/ml): 518.3 pg/mL
- Final cytokine (IFN-γ secretion) ([6]; Compound 1 DP 100 μg/M s.c., 2.5 million cells/well, activation Compound 1 RS 100 μg/ml): 582.7 pg/mL
- Final cytokine (IFN-γ secretion) ([6]; Compound 1 DP 100 μg/M s.c., 2.5 million cells/well, activation Compound 1 RS 25 μ/ml): 262.8 pg/mL
- Final cytokine (IFN-γ secretion) ([6]; Compound 1 DP 100 μg/M s.c., 2.5 million cells/well, activation Con A): 337.4 pg/mL
- Final cytokine (IFN-γ secretion) ([6]; Compound 1 DP 100 μg/M s.c., 5 million cells/well, activation Compound 1 RS 3.125 μg/ml): 90.8 pg/mL
- Final cytokine (IFN-γ secretion) ([6]; Compound 1 DP 100 μg/M s.c., 5 million cells/well, activation Compound 1 RS 6.25 μg/ml): 157.8 pg/mL
- Final cytokine (IFN-γ secretion) ([6]; Compound 1 DP 100 μg/M s.c., 5 million cells/well, activation Compound 1 RS 12.5 μg/ml): 257.1 pg/mL
- Final cytokine (IFN-γ secretion) ([6]; Compound 1 DP 100 μg/M s.c., 5 million cells/well, activation Compound 1 RS 50 μg/ml): 739.7 pg/mL
- Final cytokine (IFN-γ secretion) ([6]; Compound 1 DP 100 μg/M s.c., 5 million cells/well, activation Compound 1 RS 100 μg/ml): 995.5 pg/mL
- Final cytokine (IFN-γ secretion) ([6]; Compound 1 DP 100 μg/M s.c., 5 million cells/well, activation Compound 1 RS 25 μ/ml): 421.7 pg/mL
- Final cytokine (IFN-γ secretion) ([6]; Compound 1 DP 100 μg/M s.c., 5 million cells/well, activation Con A): 10126.8 pg/mL
- Final cytokine (IFN-γ secretion) ([6]; Compound 1 DP 200 μg/M s.c., 2.5 million cells/well, activation Compound 1 RS 3.125 μg/ml): 103.9 pg/mL
- Final cytokine (IFN-γ secretion) ([6]; Compound 1 DP 200 μg/M s.c., 2.5 million cells/well, activation Compound 1 RS 6.25 μg/ml): 126.1 pg/mL
- Final cytokine (IFN-γ secretion) ([6]; Compound 1 DP 200 μg/M s.c., 2.5 million cells/well, activation Compound 1 RS 12.5 μg/ml): 129.0 pg/mL
- Final cytokine (IFN-γ secretion) ([6]; Compound 1 DP 200 μg/M s.c., 2.5 million cells/well, activation Compound 1 RS 50 μg/ml): 378.1 pg/mL
- Final cytokine (IFN-γ secretion) ([6]; Compound 1 DP 200 μg/M s.c., 2.5 million cells/well, activation Compound 1 RS 100 μg/ml): 524.1 pg/mL
- Final cytokine (IFN-γ secretion) ([6]; Compound 1 DP 200 μg/M s.c., 2.5 million cells/well, activation Compound 1 RS 25 μ/ml): 240.3 pg/mL
- Final cytokine (IFN-γ secretion) ([6]; Compound 1 DP 200 μg/M s.c., 2.5 million cells/well, activation Con A): BQL
- Final cytokine (IFN-γ secretion) ([6]; Compound 1 DP 200 μg/M s.c., 5 million cells/well, activation Compound 1 RS 3.125 μg/ml): 204.4 pg/mL
- Final cytokine (IFN-γ secretion) ([6]; Compound 1 DP 200 μg/M s.c., 5 million cells/well, activation Compound 1 RS 6.25 μg/ml): 244.1 pg/mL
- Final cytokine (IFN-γ secretion) ([6]; Compound 1 DP 200 μg/M s.c., 5 million cells/well, activation Compound 1 RS 12.5 μg/ml): 466.1 pg/mL
- Final cytokine (IFN-γ secretion) ([6]; Compound 1 DP 200 μg/M s.c., 5 million cells/well, activation Compound 1 RS 50 μg/ml): 922.5 pg/mL
- Final cytokine (IFN-γ secretion) ([6]; Compound 1 DP 200 μg/M s.c., 5 million cells/well, activation Compound 1 RS 100 μg/ml): 1006.2 pg/mL
- Final cytokine (IFN-γ secretion) ([6]; Compound 1 DP 200 μg/M s.c., 5 million cells/well, activation Compound 1 RS 25 μ/ml): 660.5 pg/mL
- Final cytokine (IFN-γ secretion) ([6]; Compound 1 DP 200 μg/M s.c., 5 million cells/well, activation Con A): 7722.8 pg/mL
- inhibition of IFN-γ secretion ([6]; all the doses used for treatment (25-200 μg/mouse)): Significant inhibition
- ICD (Mean ± SEM) ([7]; 50 μg/mouse in Captisol ®, intensity scale 0 = none to 3 = severe/extremely intense): 1.90 ± 0.23
- intensity of immune complex deposits in kidney sections ([7]; 25 or 50 μg/mouse dissolved in Captisol®, FIG. 6): much lower than that observed in the control group
- levels of dsDNA-specific antibodies [8]: no significant differences between groups
- stability versus pH [9]: less stable
- solubility ([10]; only above pH 9.2 and below pH 3.0, buffers and pH adjustment agents, read-out: solubility levels): ≥ 2000 µg/mL
- solubility ([10]; water (aqueous solution), acetate salt, read-out: aqueous solubility of the peptide): < 500 µg/mL
